Experimental findings from patent publication US20260055079A1, “PHTHALAZINONE COMPOUNDS AS PARP7 INHIBITORS” (AZKARRA THERAPEUTICS, INC., priority 2022, published 2026) are described below.

The test system of experiment [1] is NCI-H1373 (human lung adenocarcinoma) cells. The experiment in a line: Cell proliferation assay (CellTiter-Glo), NCI-H1373. The experiment is classed as cell-based. As to conditions: Homo sapiens, NCI-H1373, 144 h, read-out: NCI-H1373 GI50. (ATP-based viability assays read luminescence as a measure of living cells.)
Experiment [2] concerns the target His-GST-PARP7 (Homo sapiens (Human), UniProt Q7Z3E1). Put plainly: PARP7 biochemical assay. As to conditions: read-out: PARP7 IC50.

Chain of His-GST-PARP7 (Q7Z3E1 whole entry): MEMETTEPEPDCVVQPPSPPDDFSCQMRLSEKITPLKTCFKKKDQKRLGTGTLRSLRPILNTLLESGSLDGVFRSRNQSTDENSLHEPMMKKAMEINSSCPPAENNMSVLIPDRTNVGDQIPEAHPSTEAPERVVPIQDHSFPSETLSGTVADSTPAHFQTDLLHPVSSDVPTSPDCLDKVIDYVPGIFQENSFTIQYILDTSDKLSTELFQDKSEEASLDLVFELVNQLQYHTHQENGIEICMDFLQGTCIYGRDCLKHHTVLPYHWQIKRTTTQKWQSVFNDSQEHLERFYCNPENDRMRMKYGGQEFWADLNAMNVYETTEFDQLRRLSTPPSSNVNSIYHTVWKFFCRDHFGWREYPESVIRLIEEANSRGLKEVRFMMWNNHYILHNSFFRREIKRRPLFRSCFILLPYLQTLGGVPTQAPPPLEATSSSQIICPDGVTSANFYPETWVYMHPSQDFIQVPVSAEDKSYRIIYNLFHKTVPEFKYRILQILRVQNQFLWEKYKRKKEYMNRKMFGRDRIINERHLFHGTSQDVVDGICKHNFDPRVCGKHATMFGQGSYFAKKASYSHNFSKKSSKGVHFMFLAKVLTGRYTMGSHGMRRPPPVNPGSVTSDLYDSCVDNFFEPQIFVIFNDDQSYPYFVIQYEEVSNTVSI

For the compound `N#Cc1ccc(N2CCN(C(=O)c3cccc(Cc4n[nH]c(=O)c5ccc(Oc6ccccc6)cc45)c3)CC2)nc1` [Example 2, 6-(4-(3-((4-Oxo-7-phenoxy-3,4-dihydrophthalazin-1-yl)methyl)benzoyl)piperazin-1-yl)nicotinonitrile], the GI50 in experiment [1] is less than 100 nM.

In the case of `N#Cc1ccc(N2CCN(C(=O)c3cccc(Cc4n[nH]c(=O)c5ccc(Cl)cc45)c3)CC2)nc1` [Example 5, 6-(4-(3-((7-Chloro-4-oxo-3,4-dihydrophthalazin-1-yl)methyl)benzoyl)piperazin-1-yl)nicotinonitrile], in experiment [1], the GI50 lay within 100 to 1000 nM. `N#Cc1ccc(N2CCN(C(=O)c3cccc(Cc4n[nH]c(=O)c5ccc(F)cc45)c3)CC2)nc1` [Example 6, 6-(4-(3-((7-Fluoro-4-oxo-3,4-dihydrophthalazin-1-yl)methyl)benzoyl)piperazin-1-yl)nicotinonitrile]: in experiment [1], the GI50 fell in the range of 100 to 1000 nM. With `N#Cc1ccc(N2CCN(C(=O)c3cc(Cc4n[nH]c(=O)c5ccc(OCC6CC6)cc45)ccc3F)CC2)nc1` [Example 7, 6-(4-(5-((7-(Cyclopropylmethoxy)-4-oxo-3,4-dihydrophthalazin-1-yl)methyl)-2-fluorobenzoyl)piperazin-1-yl)nicotinonitrile], the GI50 in experiment [1] is less than 100 nM. Regarding `COc1nnc2n1CCN(C(=O)c1cc(Cc3n[nH]c(=O)c4ccc(OC5CCC5)cc34)ccc1F)C2` [Example 165, 6-Cyclobutoxy-4-(4-fluoro-3-(3-methoxy-5,6,7,8-tetrahydro-[1,2,4]triazolo[4,3-a]pyrazine-7-carbonyl)benzyl)phthalazin-1(2H)-one], the IC50 in experiment [2] was less than 50 nM. Take `O=C(c1cc(Cc2n[nH]c(=O)c3ccc(OC4CCC4)cc23)ccc1F)N1CCn2c(CO)nnc2C1` [Example 166, 6-Cyclobutoxy-4-(4-fluoro-3-(3-(hydroxymethyl)-5,6,7,8-tetrahydro-[1,2,4]triazolo[4,3-a]pyrazine-7-carbonyl)benzyl)phthalazin-1(2H)-one]: the IC50 in experiment [2] is less than 50 nM. In the case of `COCc1nnc2n1CCN(C(=O)c1cc(Cc3n[nH]c(=O)c4ccc(OC5CCC5)cc34)ccc1F)C2` [Example 167, 6-Cyclobutoxy-4-(4-fluoro-3-(3-(methoxymethyl)-5,6,7,8-tetrahydro-[1,2,4]triazolo[4,3-a]pyrazine-7-carbonyl)benzyl)phthalazin-1(2H)-one], the IC50 in experiment [2] is less than 50 nM. As for `O=C(c1cccc(Cc2n[nH]c(=O)c3ccc(OC4CCC4)cc23)c1)N1CCN(c2ncc(C(F)(F)F)cn2)CC1` [Example 170, 6-cyclobutoxy-4-(3-(4-(5-(trifluoromethyl)pyrimidin-2-yl)piperazine-1-carbonyl)benzyl)phthalazin-1(2H)-one], the 50% inhibitory concentration (IC50) in experiment [2] was less than 50 nM.

For the compound `O=C(c1cccc(Cc2n[nH]c(=O)c3ccc(OC4CCC4)cc23)c1Cl)N1CCN(c2ncc(C(F)(F)F)cn2)CC1` [Example 171, 4-(2-Chloro-3-(4-(5-(trifluoromethyl)pyrimidin-2-yl)piperazine-1-carbonyl)benzyl)-6-cyclobutoxyphthalazin-1(2H)-one], in experiment [2], the IC50 fell in the range of 50 to 100 nM. As for `O=C(c1ccc(Cc2n[nH]c(=O)c3ccc(OC4CCC4)cc23)cc1F)N1CCN(c2ncc(C(F)(F)F)cn2)CC1` [Example 172, 6-Cyclobutoxy-4-(3-fluoro-4-(4-(5-(trifluoromethyl)pyrimidin-2-yl)piperazine-1-carbonyl)benzyl)phthalazin-1(2H)-one], the IC50 in experiment [2] is more than 2000 nM.

On to `O=C(c1ccc(Cl)c(Cc2n[nH]c(=O)c3ccc(OC4CCC4)cc23)c1)N1CCN(c2ncc(C(F)(F)F)cn2)CC1` [Example 173, 4-(2-Chloro-5-(4-(5-(trifluoromethyl)pyrimidin-2-yl)piperazine-1-carbonyl)benzyl)-6-cyclobutoxyphthalazin-1(2H)-one], for which the IC50 in experiment [2] lay in the range of 500 to 2000 nM.

For `O=C(c1cc(Cl)cc(Cc2n[nH]c(=O)c3ccc(OC4CCC4)cc23)c1)N1CCN(c2ncc(C(F)(F)F)cn2)CC1` [Example 174, 4-(3-chloro-5-(4-(5-(trifluoromethyl)pyrimidin-2-yl)piperazine-1-carbonyl)benzyl)-6-cyclobutoxyphthalazin-1(2H)-one], the IC50 in experiment [2] is less than 50 nM. For `N#Cc1ccnc(N2CCN(C(=O)c3cc(Cc4n[nH]c(=O)c5ccc(OC6CCC6)cc45)cc4c3OCC4)CC2)c1` [Example 175, 2-(4-(5-((7-cyclobutoxy-4-oxo-3,4-dihydrophthalazin-1-yl)methyl)-2,3-dihydrobenzofuran-7-carbonyl)piperazin-1-yl)isonicotinonitrile], the IC50 in experiment [2] is 50 to 100 nM. `N#Cc1ccc(N2CCN(C(=O)c3cc(Cc4n[nH]c(=O)c5ccc(CC(F)(F)F)cc45)ccc3F)CC2)nc1` [Example 183, 6-(4-(2-Fluoro-5-((4-oxo-7-(2,2,2-trifluoroethyl)-3,4-dihydrophthalazin-1-yl)methyl)benzoyl)piperazin-1-yl)nicotinonitrile]: the IC50 in experiment [2] is less than 50 nM. On to `CN1CCN(C(=O)c2ccc(Cc3n[nH]c(=O)c4c(F)cccc34)cc2)CC1` [Example 186, 8-Fluoro-4-(4-(4-methylpiperazine-1-carbonyl)benzyl)phthalazin-1(2H)-one], for which the IC50 in experiment [2] is more than 2000 nM. Regarding `CN(c1cc(C#N)ccn1)C1CN(S(=O)(=O)c2cc(Cc3n[nH]c(=O)c4ccc(OC5CCC5)cc34)ccc2F)C1` [Example 189, 2-((1-((5-((7-cyclobutoxy-4-oxo-3,4-dihydrophthalazin-1-yl)methyl)-2-fluorophenyl)sulfonyl)azetidin-3-yl)(methyl)amino)isonicotinonitrile], the IC50 in experiment [2] lay in the range of 500 to 2000 nM.

On to `CC#Cc1ccc2c(=O)[nH]nc(C(C)CCCC(=O)N3CCN(c4ncc(C(F)(F)F)cn4)CC3)c2c1` (centres unmarked) [Example 195, 4-(6-Oxo-6-(4-(5-(trifluoromethyl)pyrimidin-2-yl)piperazin-1-yl)hexan-2-yl)-6-(prop-1-yn-1-yl)phthalazin-1(2H)-one], for which the IC50 in experiment [2] was less than 50 nM.

Consider `CC#Cc1ccc2c(=O)[nH]nc(Cc3ccc(F)c(C(=O)NC(C)c4nnc(C(F)(F)F)o4)c3)c2c1` (centres unmarked) [Example 200, 2-Fluoro-5-((4-oxo-7-(prop-1-ynyl)-3,4-dihydrophthalazin-1-yl)methyl)-N-(1-(5-(trifluoromethyl)-1,3,4-oxadiazol-2-yl)ethyl)benzamide], for which the IC50 in experiment [2] is more than 2000 nM. On to `CC#Cc1ccc2c(=O)[nH]nc(Cc3ccc(F)c(C(=O)N(C)Cc4nnc(C(F)(F)F)o4)c3)c2c1` [Example 202, 2-Fluoro-N-methyl-5-((4-oxo-7-(prop-1-ynyl)-3,4-dihydrophthalazin-1-yl)methyl)-N-((5-(trifluoromethyl)-1,3,4-oxadiazol-2-yl)methyl)benzamide], for which the IC50 in experiment [2] was in the range of 100 to 500 nM. Same read-out and setting: then `O=C(NC1CN(C(=O)C2CC2)C1)c1cc(Cc2n[nH]c(=O)c3ccc(OC4CCC4)cc23)ccc1F` [Example 203, 5-((7-Cyclobutoxy-4-oxo-3,4-dihydrophthalazin-1-yl)methyl)-N-(1-(cyclopropanecarbonyl)azetidin-3-yl)-2-fluorobenzamide], with 100 to 500 nM; and `N#Cc1ccc(N2CC(NC(=O)c3cc(Cc4n[nH]c(=O)c5ccc(OC6CCC6)cc45)ccc3F)C2)nc1` [Example 204, N-(1-(5-Cyanopyridin-2-yl)azetidin-3-yl)-5-((7-cyclobutoxy-4-oxo-3,4-dihydrophthalazin-1-yl)methyl)-2-fluorobenzamide], with more than 2000 nM; and `O=C(NC1CN(c2ncc(C(F)(F)F)cn2)C1)c1cc(Cc2n[nH]c(=O)c3ccc(OC4CCC4)cc23)ccc1F` [Example 205, 5-((7-Cyclobutoxy-4-oxo-3,4-dihydrophthalazin-1-yl)methyl)-2-fluoro-N-(1-(5-(trifluoromethyl)pyrimidin-2-yl)azetidin-3-yl)benzamide], with more than 2000 nM.

With `O=C(C1CC1)N1CCN(c2noc3c(Cc4n[nH]c(=O)c5ccc(OC6CCC6)cc45)cccc23)CC1` [Example 206, 6-Cyclobutoxy-4-((3-(4-(cyclopropanecarbonyl)piperazin-1-yl)benzo[d]isoxazol-7-yl)methyl)phthalazin-1(2H)-one], the IC50 in experiment [2] fell in the range of 100 to 500 nM.

`O=c1[nH]nc(Cc2cccc3c(N4CCN(c5ncc(C(F)(F)F)cn5)CC4)noc23)c2cc(OC3CCC3)ccc12` [Example 207, 6-Cyclobutoxy-4-((3-(4-(5-(trifluoromethyl)pyrimidin-2-yl)piperazin-1-yl)benzo[d]isoxazol-7-yl)methyl)phthalazin-1(2H)-one]: in experiment [2], the 50% inhibitory concentration (IC50) is more than 2000 nM.

As for `O=c1[nH]nc(Cc2ccc3onc(N4CCN(c5ncc(C(F)(F)F)cn5)CC4)c3c2)c2cc(OC3CCC3)ccc12` [Example 209, 6-Cyclobutoxy-4-((3-(4-(5-(trifluoromethyl)pyrimidin-2-yl)piperazin-1-yl)benzo[d]isoxazol-5-yl)methyl)phthalazin-1(2H)-one], in experiment [2], the IC50 was more than 2000 nM. Consider `O=C(C1CC1)N1CCN(c2noc3ccc(Cc4n[nH]c(=O)c5ccc(OC6CCC6)cc45)cc23)CC1` [Example 210, 6-cyclobutoxy-4-((3-(4-(cyclopropanecarbonyl)piperazin-1-yl)benzo[d]isoxazol-5-yl)methyl)phthalazin-1(2H)-one], for which the IC50 in experiment [2] lay in the range of 500 to 2000 nM. For the compound `O=c1[nH]nc(Cc2ccc3c(N4CCN(c5ncc(C(F)(F)F)cn5)CC4)noc3c2)c2cc(OC3CCC3)ccc12` [Example 212, 6-Cyclobutoxy-4-((3-(4-(5-(trifluoromethyl)pyrimidin-2-yl)piperazin-1-yl)benzo[d]isoxazol-6-yl)methyl)phthalazin-1(2H)-one], the IC50 in experiment [2] was more than 2000 nM.

Regarding `O=C(C1CC1)N1CCN(c2noc3cc(Cc4n[nH]c(=O)c5ccc(OC6CCC6)cc45)ccc23)CC1` [Example 213, 6-cyclobutoxy-4-((3-(4-(cyclopropanecarbonyl)piperazin-1-yl)benzo[d]isoxazol-6-yl)methyl)phthalazin-1(2H)-one], the IC50 in experiment [2] is more than 2000 nM. For the compound `N#Cc1ccc(N2CCN(c3noc4cc(Cc5n[nH]c(=O)c6ccc(OC7CCC7)cc56)ccc34)CC2)nc1` [Example 214, 6-(4-(6-((7-Cyclobutoxy-4-oxo-3,4-dihydrophthalazin-1-yl)methyl)benzo[d]isoxazol-3-yl)piperazin-1-yl)nicotinonitrile], the IC50 in experiment [2] is more than 2000 nM.

Usually GI50 stands for the concentration giving 50% growth inhibition. Usually IC50 stands for the concentration needed to halve the response being measured.
